This is an account of results in EP4389751A1, “HETEROCYCLIC COMPOUNDS AND USES THEREOF” (Kumquat Biosciences Inc., priority 2021, dated 2024).

Like-named read-outs stand apart in the source and are kept apart here.

The target of assay [1] is T1, KRAS protein (His-tagged GDP-loaded G12S 1-169) (Homo sapiens, UniProt P01116, G12S).
T1 construct: His-tagged GDP-loaded G12S 1-169
Kind of assay: Covalent modification of KRAS protein, intact-protein LC-MS. The format is binding. The following applies: for % G12S Modification at 24 hr.: 24hrs at room temperature, KRAS protein ~2 µM; for K-Ras12S engagement after 24-hour treatment: compound pairs differ only at R^6 (warhead). The essentials: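 Percent covalent modification derives from deconvoluted intact-mass intensities of compound-adducted versus unmodified KRAS, measured by LC-ESI-MS. Before analysis, ~2 µM GDP-loaded His-KRAS 1-169 was exposed to compound for 24 h at room temperature and acidified with formic acid.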

The subject of assay [2] is GP2D cells. Kind of assay: Cell proliferation assay (CellTiter-Glo), K-Ras G12D cells. The format is cell-based. The following applies: read-out: Inhibition of GP2D Cells (IC50). The essentials:
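CellTiter-Glo luminescence, taken roughly 5 days after dosing, measured growth of G12D-mutant GP2D cells in DMEM/2 mM glutamine/10% FBS. Compound dilution series (e.g., 9 points, 3-fold) added the day after plating. Four-parameter fitting gave IC50.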
Background: In ATP-based viability assays light output follows the ATP content of the culture.

For orientation: IC50 means the concentration that gives 50% inhibition. On to `Cc1ncn(C(=O)N2CC3(CCCN(c4nc(OC[C@@]56CCCN5C[C@H](F)C6)nc5c(F)c(-c6ccc(F)c7sc(N)c(C#N)c67)c(Cl)cc45)C3)C2)n1` [Compound A102, 2-amino-4-(6-chloro-8-fluoro-2-(((2R,7aS)-2-fluorotetrahydro-1H-pyrrolizin-7 a(5H)-yl)methoxy)-4-(2-(3-methyl-1H-1,2,4-triazole-1-carbonyl)-2,6-diazaspiro[3.5]nonan-6-yl)quinazolin-7-yl)-7-fluorobenzo[b]thiophene-3-carbonitrile], for which the “% G12S Modification at 24 hr.” value in assay [1] is “+++ (+++ indicates greater than 20% labelling)”. Moreover, in assay [2] (GP2D cells (K-Ras G12D)), the concentration for half-maximal inhibition (IC50) fell in the range of 1000 to 10000 nM.
`N#CCc1ncn(C(=O)N2CC3(C2)CN(c2nc(OC[C@@]45CCCN4C[C@H](F)C5)nc4c(F)c(-c5ccc(F)c6sc(N)c(C#N)c56)c(Cl)cc24)CCO3)n1` [Compound A110, 2-amino-4-(6-chloro-4-(2-(3-(cyanomethyl)-1H-1,2,4-triazole-1-carbonyl)-5-oxa-2,8-diazaspiro[3.5]nonan-8-yl)-8-fluoro-2-(((2R,7aS)-2-fluorotetrahydro-1H-pyrrolizin-7a(5H)-yl)methoxy)quinazolin-7-yl)-7-fluorobenzo[b]thiophene-3-carbonitrile]: in assay [1], the “K-Ras12S engagement after 24-hour treatment” value (“K-Ras12S engagement” below) is “+++ (+++: indicates equal to or greater than 20% labelling)” and the “% G12S Modification at 24 hr.” value was “+++ (+++ indicates greater than 20% labelling)”. For the same molecule, the half-inhibitory concentration (IC50) in assay [2] (GP2D cells (K-Ras G12D)) lay within 1000 to 10000 nM.
For `COCCN1CCC(Oc2nc(N3CCCCC4(CN(C(=O)n5cncn5)C4)C3)c3cc(Cl)c(-c4ccc(F)c5sc(N)c(C#N)c45)c(F)c3n2)CC1` [Compound A119, 4-(4-(2-(1H-1,2,4-triazole-1-carbonyl)-2,6-diazaspiro[3.6]decan-6-yl)-6-chloro-8-fluoro-2-((1-(2-methoxyethyl)piperidin-4-yl)oxy)quinazolin-7-yl)-2-amino-7-fluorobenzo[b]thiophene-3-carbonitrile], in assay [1], the “% G12S Modification at 24 hr.” value is recorded as “+++ (+++ indicates greater than 20% labelling)”. Moreover, the 50% inhibitory concentration (IC50) in assay [2] (GP2D cells (K-Ras G12D)) fell in the range of 1000 to 10000 nM.
On to `N#Cc1cn(C(=O)N2C3CCC2CN(c2nc(OC[C@@]45CCCN4C[C@H](F)C5)nc4c(F)c(-c5ccc(F)c6sc(N)nc56)c(Cl)cc24)C3)cn1` [Compound A123, 1-(3-(7-(2-amino-7-fluorobenzo[d]thiazol-4-yl)-6-chloro-8-fluoro-2-(((2R,7aS)-2-fluorotetrahydro-1H-pyrrolizin-7a(5H)-yl)methoxy)quinazolin-4-yl)-3,8-diazabicyclo[3.2. 1]octane-8-carbonyl)-1H-imidazole-4-carbonitrile], for which, in assay [1], the “K-Ras12S engagement” value is “++ (++: indicates between 1% to 20% labelling)” and the “% G12S Modification at 24 hr.” value is “++ (++ indicates between about 1%- 20% labelling)”. Further, the IC50 in assay [2] (GP2d) was at most 1000 nM.
In the case of `N#Cc1c(N)sc2c(F)ccc(-c3c(Cl)cc4c(N5CCCC6(CN(C(=O)n7cncn7)C6)C5)nc(OC[C@@]56CCCN5C[C@H](F)C6)nc4c3F)c12` [Compound A129, 4-(4-(2-(1H-1,2,4-triazole-1-carbonyl)-2,6-diazaspiro[3.5]nonan-6-yl)-6-chloro-8-fluoro-2-(((2R,7aS)-2-fluorotetrahydro-1H-pyrrolizin-7a(5H)-yl)methoxy)quinazolin-7-yl)-2-amino-7-fluorobenzo[b]thiophene-3-carbonitrile], the “% G12S Modification at 24 hr.” value in assay [1] is on record as “+++ (+++ indicates greater than 20% labelling)”. Moreover, the IC50 in assay [2] (GP2D cells (K-Ras G12D)) lay in the range of 1000 to 10000 nM.
As to `N#Cc1c(N)sc2c(F)ccc(-c3ncc4c(N5CCCC6(CN(C(=O)n7cncn7)C6)C5)nc(OC[C@@]56CCCN5C[C@H](F)C6)nc4c3F)c12` [Compound A134, 4-(4-(2-(1H-1,2,4-triazole-1-carbonyl)-2,6-diazaspiro[3.5]nonan-6-yl)-8-fluoro-2-(((2R,7aS)-2-fluorotetrahydro-1H-pyrrolizin-7a(5H)-yl)methoxy)pyrido[4,3-d]pyrimidin-7-yl)-2-amino-7-fluorobenzo[b]thiophene-3-carbonitrile], the “% G12S Modification at 24 hr.” value in assay [1] was “+++ (+++ indicates greater than 20% labelling)”. The IC50 in assay [2] (GP2D cells (K-Ras G12D)) lay within 1000 to 10000 nM.
For `Nc1nc2c(-c3c(Cl)cc4c(N5CCCC6(CN(C(=O)n7cncn7)C6)C5)nc(OC[C@@]56CCCN5C[C@H](F)C6)nc4c3F)ccc(F)c2s1` [Compound A136, (6-(7-(2-amino-7-fluorobenzo[d]thiazol-4-yl)-6-chloro-8-fluoro-2-(((2R,7aS)-2-fluorotetrahydro-1H-pyrrolizin-7a(5H)-yl)methoxy)quinazolin-4-yl)-2,6-diazaspiro[3.5]nonan-2-yl)(1H-1,2,4-triazol-1-yl)methanone], in that order: “+++ (+++ indicates greater than 20% labelling)” and 1000 to 10000 nM.
As for `CN1CCC[C@H]1COc1nc(N2CCOC3(CN(C(=O)n4cncn4)C3)C2)c2cc(Cl)c(-c3ccc(F)c4sc(N)c(C#N)c34)c(F)c2n1` [Compound A137, 4-(4-(2-(1H-1,2,4-triazole-1-carbonyl)-5-oxa-2,8-diazaspiro[3.5]nonan-8-yl)-6-chloro-8-fluoro-2-(((S)-1-methylpyrrolidin-2-yl)methoxy)quinazolin-7-yl)-2-amino-7-fluorobenzo[b]thiophene-3-carbonitrile], in assay [1], the “% G12S Modification at 24 hr.” value is given as “+++ (+++ indicates greater than 20% labelling)”. In assay [2] (GP2D cells (K-Ras G12D)), the IC50 lay in the range of 1000 to 10000 nM.
As for `Nc1nc2c(-c3c(Cl)cc4c(N5CCN(C(=O)n6cncn6)CC(F)(F)C5)nc(OC[C@@]56CCCN5C[C@H](F)C6)nc4c3F)ccc(F)c2s1` [Compound A141, (4-(7-(2-amino-7-fluorobenzo[d]thiazol-4-yl)-6-chloro-8-fluoro-2-(((2R,7aS)-2-fluorotetrahydro-1H-pyrrolizin-7a(5H)-yl)methoxy)quinazolin-4-yl)-6,6-difluoro-1,4-diazepan-1-yl)(1H-1,2,4-triazol-1-yl)methanone], in assay [1], the “K-Ras12S engagement” value is given as “+++ (+++: indicates equal to or greater than 20% labelling)” and the “% G12S Modification at 24 hr.” value is recorded as “+++ (+++ indicates greater than 20% labelling)”. Moreover, the IC50 in assay [2] (GP2D cells (K-Ras G12D)) was 1000 to 10000 nM.
Consider `Nc1nc2c(-c3c(Cl)cc4c(N5CCN(C(=O)n6cncn6)CC5)nc(OC[C@@]56CCCN5C[C@H](F)C6)nc4c3F)ccc(F)c2s1` [Compound A146, (4-(7-(2-amino-7-fluorobenzo[d]thiazol-4-yl)-6-chloro-8-fluoro-2-(((2R,7aS)-2-fluorotetrahydro-1H-pyrrolizin-7a(5H)-yl)methoxy)quinazolin-4-yl)piperazin-1-yl)(1H-1,2,4-triazol-1-yl)methanone], for which the “% G12S Modification at 24 hr.” value in assay [1] is reported as “+++ (+++ indicates greater than 20% labelling)”. The IC50 in assay [2] (GP2D cells (K-Ras G12D)) was at most 1000 nM.
As to `Cc1ncn(C(=O)N2CC3(C2)CN(c2nc(OC[C@@]45CCCN4C[C@H](F)C5)nc4c(F)c(-c5ccc(F)c6sc(N)c(C#N)c56)c(Cl)cc24)CCO3)n1` [Compound A148, 2-amino-4-(6-chloro-8-fluoro-2-(((2R,7aS)-2-fluorotetrahydro-1H-pyrrolizin-7 a(5H)-yl)methoxy)-4-(2-(3-methyl-1H-1,2,4-triazole-1-carbonyl)-5-oxa-2,8-diazaspiro[3.5]nonan-8-yl)quinazolin-7-yl)-7-fluorobenzo[b]thiophene-3-carbonitrile], in assay [1], the “% G12S Modification at 24 hr.” value was “+++ (+++ indicates greater than 20% labelling)”. Besides, in assay [2] (GP2D cells (K-Ras G12D)), the IC50 lay in the range of 1000 to 10000 nM.
